What was measured:
[1] = Electrochemistry: metal-centered redox potential; assay type: physicochemical; conditions: vs NHE; listed as 2
Description: Electrochemistry. The electrochemical characterization was performed as described previously on a Voltammetric Analyzer Model 600 (CH instrument) using a glassy carbon electrode (Ag/AgCl reference and Pt auxiliary electrodes), at 0.5 mM porphyrin, pH 7.8 (0.05 M phosphate buffer), 0.1 M NaCl. The potentials were standardized against potassium ferricyanide/potassium ferrocyanide couple (Batinic-Haberle et al, Arch. Biochem. Biophys. 343:225 (1997); Kolthof et al, J. Phys. Chem. 39:945 (1974)).
Electrochemistry. The metal-centered redox behavior of all metalloporphyrin products was reversible. The half-wave potentials (E^O1/2) were calculated as the average of the cathodic and anodic peaks and are given in mV vs NHE (Table 5). The average shift per chlorine is +55 mV (Table 5), which is in agreement with the values previously reported for H2TPP derivatives (between −50 and +70 mV) (Sen et al, Chem. Soc. Faraday Trans. 93:4281 (1997); Autret et al. J. Chem. Soc. Dalton Trans. 2793 (1996); Hariprasad et al, J. Chem. Soc. Dalton Trans. 3429 (1996); Tagliatesta et al, Inorg. Chem. 35:5570 (1996); Ghosh, J. Am. Chem. Soc. 117:4691 (1995); Takeuchi et al, J. Am. Chem. Soc. 116:9730 (1994); Binstead et al, Inorg. Chem. 30:1259 (1991); Giraudeau et al, J. Am. Chem. Soc. 101:3857 (1979)). This shift appears to be higher (˜+65 mV) between 0 and 1, and between 2 and 3 chlorines (Table 5). […] The manganese redox state of MnCl4TE-2-PyP^5 (E^O1/2=+448 mV) and MnOBTMPyP^4+ (E^O1.2=+480 mV) is 3+ and 2+, respectively. This difference may be explained by their difference in terms of redox potential (˜30 mV) but also by structural considerations, for instance an increased distortion of the porphyrin ring in the case of MnOBTMPyP^4+. (Batinic-Haberle et al, Arch. Biochem. Biophys. 343:225 (1997); Ochsenbein et al, Angew. Chem. Int. Ed. Engl. 33:348 (1994)).

[2] = SOD-like activity in vitro (xanthine/xanthine oxidase, ferricytochrome c; McCord and Fridovich); assay type: biochemical; conditions: Example VII
Description: (§1) SOD activity can be monitored in the presence and absence of EDTA using the method of McCord and Fridovich (J. Biol. Chem. 244:6049 (1969)). The efficacy of a mimetic can also be determined by measuring the effect of the mimetic on the aerobic growth of a SOD null E. coli strain versus a parental strain lacking the specific mutations. Specifically, parental E. coli (AB1157) and SOD null E. coli. (JI132) can be grown in M9 medium containing 0.2% casamino acids and 0.2% glucose at pH 7.0 and 37° C.; growth can be monitored in terms of turbidity followed at 700 nm.
The superoxide dismutase activity of the mimetics of the invention depends on a number of factors, including thermodynamic factors (eg the metal-centered redox-potential see FIG. 1)), and kinetic factors (eg electrostatic facilitation).
Superoxide dismuting activity. The SOD-like activities were measured using the xanthine/xanthine oxidase system as a source of O2^− and ferricytochrome c as its indicating scavenger (McCord et al, J. Biol. Chem. 244:6049 (1969)). O2— was produced at the rate of 1.2 μM per minute and reduction of ferricytochrome c was followed at 550 nm. Assays were conducted in presence of 0.1 mM EDTA in 0.05 M phosphate buffer (pH 7.8). Rate constants for the reaction of the compounds were based upon competition with […] cytochrome c, kcyt c=2.6×10^5 M^−1s^−1 (Butler et al, J. Biol. Chem. 257:10747 (1982)). All measurements were done at 25° C. Cytochrome c concentration was at least 10^3-fold higher than the concentrations of the SOD mimics and the rates were linear for at least two minutes, during which the compounds intercepted ˜100 equivalents of O2^−, thus confirming the catalytic nature of O2^− dismutation in presence of the mimics.
Superoxide dismuting activities. SOD-like activities were measured as described previously, based on competition with cytochrome c (McCord et al, J. Biol. Chem. 244:6049 (1969)). MnClxTE-2-PyP^5+ SOD-like activities are reported in Table 5, IC50 (M) representing the concentration for one unit of activity (or the concentration that causes 50% inhibition of cytochrome c reduction by O2^−) and kcat (M^−1s^−1) representing the rate constant for the superoxide dismutation reaction. The SOD-like activity per mole of MnCl4TE-2-PyP^5 is approximately 2-, 7- and 100-fold higher than MnOBTMPyP^4+, MnTM-2-PyP^5+ and MnTM-4PyP^5+, respectively (Faulkner et al, J. Biol. Chem. 269:23471 (1994); Batinic-Haberle et al, Arch. Biochem. Biophys. 343:225 (1997); Batinic-Haberle et al, J. Biol. Chem. 273:24521 (1998)). The SOD-like activity of MnCl4TE-2-PyP^5+ represents 20% of the activity of the Cu,Zn-SOD enzyme on a molar basis (40% per active site considering that the enzyme has two active sites) (Klug-Roth et al, J. Am. Chem. Soc. 95:2786 (1973)).

[3] = test system: SOD null E. coli (JI132); assay: Aerobic growth of SOD null E. coli strain versus parental strain; assay type: cell-based
Description: FIG. 3. SOD activity in vivo (E. coli) of 1, 2, 3* and 4* (20 μM) in minimal medium (mixture of atropoisomers, JI=SOD deficient strain, AB parental strain).
as §1
The activity in vivo of the mimetics of the invention can be tested on an E. coli strain deleted of the genes coding for both the MnSOD and FeSOD. In this assay, the efficacy of a mimetic is determined by measuring the effect of the mimetic on the aerobic growth of a SOD null E. coli strain versus a parental strain. Specifically, parental E. coli (AB1157) and SOD null E. coli. (JI132) are grown in M9 medium containing 0.2% casamino acids and 0.2% glucose at pH 7.0 and 37° C.; growth is monitored in terms of turbidity followed at 700 nm.

[4] = test system: DNA; assay: SOD activity in vitro in the presence of DNA (DNA interaction); assay type: biochemical
Text: The “ortho effect” also decreases the toxicity. It is well known that porphyrins, and particularly cationic porphyrins, interact with DNA and can act as DNA cleavers. This fact can be an issue in the use of metallo-porphyrins as anti-tumor drugs. The present mimetics avoid this interaction.
In order to maximize the decrease in toxicity due to interaction with DNA, two derivatives of the ortho compound have been prepared which carry four ethyl or four butyl groups (“4” and “5”, respectively).

[5] = Water solubility of the chloride salt; assay type: physicochemical; conditions: micelles were not observed
Description: The same procedure described above was used. 0.92 mL of 1-iodobutane (100 eq) was added and the mixture stirred at 100° C. for 7 days. […] The elemental analysis was thus performed on the hexafluorophosphate salt (non-viscous). The chlorine salt is water-soluble (micelles were not observed). UV(H2O) of the chloride salt, ε454.0 1.21×10^5 M^−1cm^−1. Elemental analysis, calcd. For MnC56H60N8P5F30.H2O: C (40.94), H (3.80), N (6.82); found: C (41.15), H (4.35), N (6.52).

Molecule	E1/2 one-electron metal-centered redox-potential [1]	rate of dismutation (kcat) [2] [M⁻¹ s⁻¹]	aerobic growth (A700) of SOD null E. coli cells ([3]; 20 μM, glucose minimal medium (M9) plus 5 essential amino acids, JI132, listed as 2)	toxicity in vivo (E. coli) ([3]; FIG. 3)	interaction with DNA ([4]; SOD activity in vitro in the presence of DNA)	toxicity due to interaction with DNA, comparison between ortho derivatives ([4]; Table 2 and FIG. 3)	solubility in water [5]
manganese(III) 5,10,15,20-tetrakis(N-methylpyridyl)porphyrin [MnTM-3-PyP^5+]	+0.042 V	4.1e+06	increase in A700	decreased toxicity	greatly decreased	–	–
CCCC[n+]1ccccc1-c1c2nc(c(-c3cccc[n+]3CCCC)c3ccc([n-]3)c(-c3cccc[n+]3CCCC)c3nc(c(-c4cccc[n+]4CCCC)c4ccc1[n-]4)C=C3)C=C2.[Mn+3] [compound 5, manganic meso-tetrakis-(N-butylpyridinium-2-yl)porphyrin]	–	–	–	–	–	did not show a further decrease in toxicity	water-soluble

Source: US20080113956A1, “Substituted Porphyrins” (priority 1997, published 2008)
